Laboratory results taken from ChEMBL document CHEMBL1141899, “QSAR studies on 1,2-dithiole-3-thiones: modeling of lipophilicity, quinone reductase specific activity, and production of growth hormone” (Bioorg Med Chem Lett, 2005).

Tests used:
[1] = physchem; conditions: octanol/water
Description: Partition coefficient (logP)

[2] = target: NAD(P)H dehydrogenase [quinone] 1 (Homo sapiens) (UniProt P15559)
NAD(P)H dehydrogenase [quinone] 1 (Homo sapiens), sequence (P15559 whole entry): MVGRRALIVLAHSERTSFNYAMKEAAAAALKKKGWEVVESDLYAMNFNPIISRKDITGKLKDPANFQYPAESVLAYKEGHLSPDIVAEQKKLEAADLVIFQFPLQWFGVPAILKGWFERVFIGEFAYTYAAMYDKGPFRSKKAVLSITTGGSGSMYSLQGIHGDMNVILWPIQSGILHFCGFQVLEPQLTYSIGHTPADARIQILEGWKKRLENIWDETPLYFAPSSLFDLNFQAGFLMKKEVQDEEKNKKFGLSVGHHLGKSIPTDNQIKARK
Description: Increased quinone reductase specific activity

| SMILES | logP [1] | Log CDQR [2] |
| --- | --- | --- |
| S=c1ssc2c1CCCCCCCC2 | 2.53 | -0.602 |
| S=c1sscc1-c1ccccc1 |  | 0.301 |
| S=c1ccss1 |  | 0.176 |
| O=C(O)c1cc(=S)ss1 | 1.05 | 1.9 |
| Cc1cc(=S)ss1 | 1.85 | 1.23 |
| Cc1cssc1=S |  | 1.08 |
| COc1ccc(-c2cc(=S)ss2)cc1 |  | 1.25 |
| NC(=O)c1cssc1=S | 0.3 | 1.66 |
| CCc1cc(=S)ss1 |  | 0.903 |
| COc1ccc(-c2ssc(=S)c2C)cc1 |  | 1.58 |
| S=c1cc(-c2ccccc2)ss1 |  | 1.3 |
| NC(=O)c1cc(=S)ss1 | 0.01 | 1.3 |
| CC(C)(C)c1cc(=S)ss1 | 3.25 | 0.699 |
| S=C1CC(c2cc(=S)ss2)SS1 (configuration not stated) | 1.8 | 0.342 |
| Cc1c(-c2cnccn2)ssc1=S [OLTIPRAZ] | 2.79 | 1.34 |
| Cc1ssc(=S)c1C |  | 1.34 |
| CCc1cssc1=S |  | 0.903 |
| O=C(O)c1cssc1=S | 1.33 | 1.38 |
